{"source": "PubChem BioAssay (NCI)", "test_in_all_cases": "NCI-60 cell line screen, 48 h", "key": {"786-0 renal": {"test_system": "786-0 renal"}, "A549 NSCLC": {"test_system": "A549 NSCLC"}, "CCRF-CEM leukemia": {"test_system": "CCRF-CEM leukemia"}, "COLO 205 colon": {"test_system": "COLO 205 colon"}, "DU-145 prostate": {"test_system": "DU-145 prostate"}, "EKVX NSCLC": {"test_system": "EKVX NSCLC"}, "HCC-2998 colon": {"test_system": "HCC-2998 colon"}, "HCT-116 colon": {"test_system": "HCT-116 colon"}, "HCT-15 colon": {"test_system": "HCT-15 colon"}, "HOP-62 NSCLC": {"test_system": "HOP-62 NSCLC"}, "HOP-92 NSCLC": {"test_system": "HOP-92 NSCLC"}, "HS 578T breast": {"test_system": "HS 578T breast"}, "HT29 colon": {"test_system": "HT29 colon"}, "IGROV1 ovarian": {"test_system": "IGROV1 ovarian"}, "KM12 colon": {"test_system": "KM12 colon"}, "LOX IMVI melanoma": {"test_system": "LOX IMVI melanoma"}, "M14 melanoma": {"test_system": "M14 melanoma"}, "MALME-3M melanoma": {"test_system": "MALME-3M melanoma"}, "MCF7 breast": {"test_system": "MCF7 breast"}, "MDA-MB-231 breast": {"test_system": "MDA-MB-231 breast"}, "MDA-MB-435": {"test_system": "MDA-MB-435"}, "MOLT-4 leukemia": {"test_system": "MOLT-4 leukemia"}, "NCI-H226 lung": {"test_system": "NCI-H226 lung"}, "NCI-H23 lung": {"test_system": "NCI-H23 lung"}, "NCI/ADR-RES ovarian": {"test_system": "NCI/ADR-RES ovarian"}, "OVCAR-4 ovarian": {"test_system": "OVCAR-4 ovarian"}, "OVCAR-5 ovarian": {"test_system": "OVCAR-5 ovarian"}, "OVCAR-8 ovarian": {"test_system": "OVCAR-8 ovarian"}, "RPMI-8226 leukemia": {"test_system": "RPMI-8226 leukemia"}, "RXF 393 renal": {"test_system": "RXF 393 renal"}, "SF-268 CNS": {"test_system": "SF-268 CNS"}, "SF-295 CNS": {"test_system": "SF-295 CNS"}, "SF-539 CNS": {"test_system": "SF-539 CNS"}, "SK-MEL-28 melanoma": {"test_system": "SK-MEL-28 melanoma"}, "SK-MEL-5 melanoma": {"test_system": "SK-MEL-5 melanoma"}, "SK-OV-3 ovarian": {"test_system": "SK-OV-3 ovarian"}, "SN12C renal": {"test_system": "SN12C renal"}, "SNB-19 CNS": {"test_system": "SNB-19 CNS"}, "SNB-75 CNS": {"test_system": "SNB-75 CNS"}, "SR leukemia": {"test_system": "SR leukemia"}, "SW-620 colon": {"test_system": "SW-620 colon"}, "T-47D breast": {"test_system": "T-47D breast"}, "TK-10 renal": {"test_system": "TK-10 renal"}, "U251 CNS": {"test_system": "U251 CNS"}, "UACC-257 melanoma": {"test_system": "UACC-257 melanoma"}, "UACC-62 melanoma": {"test_system": "UACC-62 melanoma"}, "UO-31 renal": {"test_system": "UO-31 renal"}}, "note": "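The compound was tested at five concentrations on cells cultured in 96-well plates, with a 48-hour exposure period. TGI: total growth inhibition.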"}
{"compound": "CC(Cc1ccccc1)N(C)Cc1nc(C2CCC([N+](=O)[O-])O2)no1", "note": "(configuration not stated)", "values": [{"measurement": "TGI", "setting": "786-0 renal", "result": 24.6, "unit": "µM"}, {"measurement": "TGI", "setting": "A549 NSCLC", "result": 27.4, "unit": "µM"}, {"measurement": "TGI", "setting": "CCRF-CEM leukemia", "result": 44.8, "unit": "µM"}, {"measurement": "TGI", "setting": "COLO 205 colon", "result": 12.9, "unit": "µM"}, {"measurement": "TGI", "setting": "DU-145 prostate", "result": 24.9, "unit": "µM"}, {"measurement": "TGI", "setting": "EKVX NSCLC", "result": 94.4, "unit": "µM"}, {"measurement": "TGI", "setting": "HCC-2998 colon", "result": 14.3, "unit": "µM"}, {"measurement": "TGI", "setting": "HCT-116 colon", "result": 25.3, "unit": "µM"}, {"measurement": "TGI", "setting": "HCT-15 colon", "result": 7.07, "unit": "µM"}, {"measurement": "TGI", "setting": "HOP-62 NSCLC", "result": 19.7, "unit": "µM"}, {"measurement": "TGI", "setting": "HOP-92 NSCLC", "result": 51.2, "unit": "µM"}, {"measurement": "TGI", "setting": "HS 578T breast", "result": 17.9, "unit": "µM"}, {"measurement": "TGI", "setting": "HT29 colon", "result": 11.5, "unit": "µM"}, {"measurement": "TGI", "setting": "IGROV1 ovarian", "result": 25.5, "unit": "µM"}, {"measurement": "TGI", "setting": "KM12 colon", "result": 21, "unit": "µM"}, {"measurement": "TGI", "setting": "LOX IMVI melanoma", "result": 11.6, "unit": "µM"}, {"measurement": "TGI", "setting": "M14 melanoma", "result": 19.1, "unit": "µM"}, {"measurement": "TGI", "setting": "MALME-3M melanoma", "result": 25.6, "unit": "µM"}, {"measurement": "TGI", "setting": "MCF7 breast", "result": 15.5, "unit": "µM"}, {"measurement": "TGI", "setting": "MDA-MB-231 breast", "result": 9.93, "unit": "µM"}, {"measurement": "TGI", "setting": "MDA-MB-435", "result": 20.4, "unit": "µM"}, {"measurement": "TGI", "setting": "MOLT-4 leukemia", "result": "> 100", "unit": "µM"}, {"measurement": "TGI", "setting": "NCI-H226 lung", "result": 32.4, "unit": "µM"}, {"measurement": "TGI", "setting": "NCI-H23 lung", "result": 19.4, "unit": "µM"}, {"measurement": "TGI", "setting": "NCI/ADR-RES ovarian", "result": 82.5, "unit": "µM"}, {"measurement": "TGI", "setting": "OVCAR-4 ovarian", "result": 21.3, "unit": "µM"}, {"measurement": "TGI", "setting": "OVCAR-5 ovarian", "result": 29, "unit": "µM"}, {"measurement": "TGI", "setting": "OVCAR-8 ovarian", "result": 59.1, "unit": "µM"}, {"measurement": "TGI", "setting": "RPMI-8226 leukemia", "result": 72.8, "unit": "µM"}, {"measurement": "TGI", "setting": "RXF 393 renal", "result": 37.6, "unit": "µM"}, {"measurement": "TGI", "setting": "SF-268 CNS", "result": "> 100", "unit": "µM"}, {"measurement": "TGI", "setting": "SF-295 CNS", "result": 20.9, "unit": "µM"}, {"measurement": "TGI", "setting": "SF-539 CNS", "result": 8.38, "unit": "µM"}, {"measurement": "TGI", "setting": "SK-MEL-28 melanoma", "result": 25.6, "unit": "µM"}, {"measurement": "TGI", "setting": "SK-MEL-5 melanoma", "result": 24.3, "unit": "µM"}, {"measurement": "TGI", "setting": "SK-OV-3 ovarian", "result": 84, "unit": "µM"}, {"measurement": "TGI", "setting": "SN12C renal", "result": 11, "unit": "µM"}, {"measurement": "TGI", "setting": "SNB-19 CNS", "result": 25.2, "unit": "µM"}, {"measurement": "TGI", "setting": "SNB-75 CNS", "result": 23.1, "unit": "µM"}, {"measurement": "TGI", "setting": "SR leukemia", "result": "> 100", "unit": "µM"}, {"measurement": "TGI", "setting": "SW-620 colon", "result": 14.9, "unit": "µM"}, {"measurement": "TGI", "setting": "T-47D breast", "result": 66.1, "unit": "µM"}, {"measurement": "TGI", "setting": "TK-10 renal", "result": 28.4, "unit": "µM"}, {"measurement": "TGI", "setting": "U251 CNS", "result": 22.9, "unit": "µM"}, {"measurement": "TGI", "setting": "UACC-257 melanoma", "result": 21.2, "unit": "µM"}, {"measurement": "TGI", "setting": "UACC-62 melanoma", "result": 22.1, "unit": "µM"}, {"measurement": "TGI", "setting": "UO-31 renal", "result": 20.4, "unit": "µM"}]}
